# In patent publication US12338263B2, “Antibacterial aminoglycoside derivatives” (priority 2019, dated 2025):
# Experiments:
# [1] = test system: auditory function in guinea pigs; assay: Auditory safety: compound action potential (CAP) in guinea pigs; format: in vivo; conditions: guinea pig, in vivo, sc, 100 mg/kg
# Protocol: (§1) Healthy adult guinea pigs (150-250 g) were employed as the research objects, and were randomly divided into saline control group, gentamicin group, compound Plazomicin group and Compound 1 group, with 8 animals in each group. Subcutaneous administration is used, and the following assays were carried out during and after the administration for 14 consecutive days: • 1. To analyze the effects of different drugs on the auditory function of guinea pigs, the compound action potential (CAP) of animals was recorded on the 14th day (29th day, i.e., 4 weeks) after administration. The results obtained were analyzed and the changes of the threshold shift, amplitude, latency and other indicators among different treatment groups were compared. • 2. After the different groups of animals were processed and the auditory function data thereof were collected, the cochlea of the animals was taken out for fixation and staining. Surface preparation of basilar membrane of the cochlea on one side was performed to count the loss of hair cells so as to make a cochlea map, and the cochlea on the other side was decalcified and frozen sectioned. The density of spiral ganglion neurons was counted and compared among groups. Research Results: 1. Administration Method and Treatment
# (§2) Gentamicin from Dalian Meilun Biotechnology Co., Ltd., and Plazomicin and Compound 1 from WuXi AppTec (WuHan) Co., Ltd. are used, the solution of which were prepared just before use each time by using saline for dissolution to the concentration of 50 mg/mL, and the injection dose was 100 mg/kg body weight. Method: subcutaneous injection, and confirmation of no liquid leakage after each injection.
# The compound action potential (CAP) was tested and recorded when clicks and different frequencies of pure tones (1 KHz-32 kHz) were applied to each group of animals, and variations in amplitude and latency were mainly compared when clicks and medium and high frequency pure tones (16, 32 kHz) were applied. The magnitude of amplitude reflects the responsiveness of hair cells and auditory nerves. The larger the amplitude and the greater the slope of the I/O curve were, the better the responsiveness and the better the function were. In addition, the cochlea from apical turn to basal turn was responsive to sounds from low-frequency to high-frequency respectively, which is the frequency correspondence of the cochlear basilar membrane. The functional changes to different frequencies correspond to the different structural and functional changes of the cochlea fromapical turn to basal turn. The length of latency was also related to the function of the hair cells and auditory nerve response. Generally speaking, increasing of the threshold value when the cochlea was injured would inevitably lead to the extension of latency. […] In other words, the extension of latency reflected the decrease of response function. The previous ototoxicity of aminoglycoside antibiotics was mainly concentrated in the high-frequency area. In this study, the gentamicin group was consistent with previous results, as summarized below.
# cochlear hair cells = assay: Auditory safety: hair cell staining and counting on the basilar membrane of the cochlea; format: in vivo, guinea pigs
# Protocol: as §1, §2
# In order to compare the effects of different drugs on hair cells, hair cell staining and counting on the whole basilar membrane of the cochlea are performed. […] The Plazomicin group had 11.2-28.1% loss of outer hair cells in the high frequency (70-100% from the apical turn) and 16.7-24.2% loss of the outer hair cells at the beginning of the apical turn (10-20%). However, in the Compound 1 group, the loss of outer hair cells only occurred in the low-frequency region (from the top turn −40%), in which the loss rate of outer hair cells was about 2.5-11%, and the outer hair cells were relatively intact in the high frequency area (see FIG. 6 B).
smiles,measurement,setting,value
CN[C@@H]1[C@@H](O)[C@@H](O[C@@H]2[C@@H](O)[C@H](O[C@H]3OC(CNCCOCCONC(=N)N)=CC[C@H]3N)[C@@H](N)C[C@H]2NC(=O)[C@@H](O)CCN)OC[C@]1(C)O [Compound 1],CAP amplitude under click,[1],consistent with the Control group
same,hearing damage (CAP amplitude) at 16 kHz,[1],no different from the Control group
same,"hearing damage to experimental animals (CAP amplitude, overall)",[1],significantly lower than that of Gentamicin and Plazomicin
same,CAP amplitude at 16 kHz,[1]; 29 day,381.646±20.895 uv
same,CAP amplitude at 32 kHz,[1]; 29 day,79.420±7.000 uv
same,hearing damage (CAP amplitude) at 32 kHz,[1]; 29 day,34.7%
same,reduction of hearing damage at 32 kHz compared to Gentamicin,[1]; 29 day,39.6%
same,reduction of hearing damage at 32 kHz compared to Plazomicin,[1]; 29 day,13.5%
same,loss rate of outer hair cells,"cochlear hair cells; guinea pig, in vivo, 29 day",2.5-11%
same,damage to inner hair cells (overall),"cochlear hair cells; guinea pig, in vivo, sc, 100 mg/kg",almost undamaged
same,hair cell toxicity (overall),"cochlear hair cells; guinea pigs, 100 mg/kg subcutaneous 14 days",significantly lower than that of the Gentamicin and the Plazomicin
